Measurements published in publication PMC3591309, “Deoxyhypusine Hydroxylase from Plasmodium vivax, the Neglected Human Malaria Parasite: Molecular Cloning, Expression and Specific Inhibition by the 5-LOX Inhibitor Zileuton” (PLoS ONE, 2013).

Biological target: T1, Deoxyhypusine hydroxylase (DOHH) (Plasmodium vivax, UniProt A5JZ19)
T1 construct: full-length ORF of 346 amino acids, histidine-tagged, expressed in E. coli BL21(DE3) (pET-28a)
T1 sequence (A5JZ19 1-346): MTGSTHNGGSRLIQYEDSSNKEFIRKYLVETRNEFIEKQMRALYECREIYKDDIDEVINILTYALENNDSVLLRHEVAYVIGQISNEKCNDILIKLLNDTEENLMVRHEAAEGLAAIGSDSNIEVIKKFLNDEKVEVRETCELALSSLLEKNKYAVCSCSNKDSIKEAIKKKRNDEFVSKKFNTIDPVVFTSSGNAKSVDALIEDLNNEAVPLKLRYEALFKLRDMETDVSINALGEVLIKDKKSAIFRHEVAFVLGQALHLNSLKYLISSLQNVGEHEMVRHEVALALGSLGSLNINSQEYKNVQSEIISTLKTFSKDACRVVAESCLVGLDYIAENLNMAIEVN
Assay: recombinant DOHH activity assay with eIF-5A(Dhp) substrate; radioactive filter assay and GC/MS, dose-response
Format: biochemical

**Q.** Which IC50 does the source give for `CC(c1cc2ccccc2s1)N(O)C(N)=O` (racemic) [zileuton, (RS)-1-(1-Benzothiophen-2-ylethyl)-1-hydroxyurea] here?
**A.** The IC50 was 12,5 nmol.
